Assay [1] deals with T1, PaMTIP (Pseudomonas aeruginosa, UniProt Q9HZK1). Type of assay: biochemical.
Assay [2] deals with T1, PaMTIP. The assay is described as follows: PaMTIP inhibition assay. Type of assay: biochemical.
The mark [3] stands for this setting: phosphorolysis, 25 °C, 100 mM Hepes pH 7.4, 100 mM phosphate.
[4] abbreviates: initial phase, 1 nM PaMTIP, 2 mM MTI, 25 °C, pH 7.4.
Setting [5] is: second binding phase after slow-onset, 1 nM PaMTIP, 2 mM MTI, 25 °C, pH 7.4.

The results in this text go back to paper PMC3040260 (Biochemistry, 2011).

“And” between values parts separate entries of the source, which are not always exact repeats. Identical values can stand only once.

T1 sequence (Q9HZK1 whole entry): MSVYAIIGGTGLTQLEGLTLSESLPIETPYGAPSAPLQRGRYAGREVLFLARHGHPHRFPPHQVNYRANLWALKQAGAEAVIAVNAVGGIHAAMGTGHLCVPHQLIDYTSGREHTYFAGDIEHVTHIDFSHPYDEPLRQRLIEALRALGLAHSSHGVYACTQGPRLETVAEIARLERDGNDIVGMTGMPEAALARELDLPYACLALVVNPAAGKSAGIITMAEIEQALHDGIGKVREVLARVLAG

In the case of 5'-methylthioadenosine [MTA], at PaMTIP [1] (setting [3]), the kcat – broadly, the maximal rate divided by the concentration of active sites – is listed as < 10^−4 s^−1. In addition, the Ki (commonly a dissociation constant, usually derived from enzyme kinetics or from competition with a known ligand) at PaMTIP [2] (competitive inhibitor of MTI, 200 µM MTI) came out at 70000 ± 20000 nM.

As to 5'-methylthioinosine [MTI], the slow hydrolysis rate on PaMTIP [1] (hydrolysis to hypoxanthine and 5-methylthioribose) was 3.8e-05 s⁻¹. Also, at PaMTIP [1] (setting [3]), the Km – broadly, the concentration of substrate that gives half-maximal velocity – came to 2.6 ± 0.4 µM; the turnover number (kcat) was 4.8 s⁻¹ and 4.8 ± 0.2 s⁻¹.

With `CSC[C@H]1CN(Cc2c[nH]c3c(=O)[nH]cnc23)C[C@@H]1O` [MT-DADMe-ImmH, 5'-methylthio-DADMe-ImmH], the figures for the Ki on PaMTIP [2] (setting [4]) and at PaMTIP [2] (setting [5]) were 0.8 ± 0.1 nM and 0.34 ± 0.02 nM, respectively.

Regarding `CSC[C@H]1N[C@@H](c2c[nH]c3c(=O)[nH]cnc23)[C@H](O)[C@@H]1O` [MT-ImmH, 5'-methylthio-ImmH], the “fold tighter binding than MT-DADMe-ImmH (Ki*)” value at PaMTIP [2] (PaMTIP) is listed as 4 fold. Also, the results for the Ki on PaMTIP [2] (setting [4]) and at PaMTIP [2] (setting [5]) were 0.84 ± 0.05 nM and 0.076 ± 0.005 nM, respectively.

For the compound `O=c1[nH]cnc2c([C@@H]3N[C@H](CSc4ccccc4)[C@@H](O)[C@H]3O)c[nH]c12` [PhT-ImmH, 5'-phenylthio-ImmH], at PaMTIP [2] (PaMTIP), the slow-onset inhibition entry was “induces slow-onset inhibition”. Besides, the Ki at PaMTIP [2] (setting [4]) came to 0.66 ± 0.09 nM; at PaMTIP [2] (setting [5]) it was 0.035 ± 0.003 nM.

With `Nc1ncnc2c1ncn2[C@@H]1O[C@H](CO)[C@@H](O)[C@H]1O` [adenosine], the turnover number (kcat) at PaMTIP [1] (setting [3]) is 0.0549 s⁻¹ and 0.0549 ± 0.0005 s⁻¹. Also, on PaMTIP [1] (relative to MTI), the “fold decrease of kcat/Km in comparison with MTI” value was 750 fold.

With `O=c1[nH]cnc2c1ncn2[C@@H]1O[C@H](CO)[C@@H](O)[C@H]1O` [inosine], the kcat at PaMTIP [1] (setting [3]) is 0.57 s⁻¹ and 0.57 ± 0.04 s⁻¹.
